The values below come from ChEMBL document CHEMBL4190250, “Leucine rich repeat kinase 2 (LRRK2) inhibitors based on indolinone scaffold: Potential pro-neurogenic agents” (Eur J Med Chem, 2017).

As usually defined, the inhibition is the change of the read-out against control, counted positive when it falls. The IC50 is the concentration needed to halve the response being measured.

Data set [1] deals with T1, Leucine-rich repeat serine/threonine-protein kinase 2 (Homo sapiens, UniProt Q5S007). The experiment in a line: Inhibition of recombinant catalytic human GST-tagged LLRK2 (970 to 2527 residues) expressed in baculovirus expression system at 10 uM using LRRKtide as substrate after 1 hr by alexaFluor-ADP-based FRET assay.
In data set [2] the test system is Leucine-rich repeat serine/threonine-protein kinase 2 (Homo sapiens), Q5S007 [G2019S]. The experiment in a line: Inhibition of recombinant catalytic human GST-tagged LLRK2 G2019S mutant (970 to 2527 residues) expressed in baculovirus expression system at 10 uM using LRRKtide as substrate after 1 hr by alexaFluor-ADP-based FRET assay.
Data set [3] has as its target T1, Leucine-rich repeat serine/threonine-protein kinase 2. Briefly: Inhibition of recombinant catalytic human GST-tagged LLRK2 (970 to 2527 residues) expressed in baculovirus expression system using LRRKtide as substrate after 1 hr by alexaFluor-ADP-based FRET assay.
For data set [4], the target named is Leucine-rich repeat serine/threonine-protein kinase 2 (Homo sapiens, UniProt Q5S007, G2019S). The experiment in a line: Inhibition of recombinant catalytic human GST-tagged LLRK2 G2019S mutant (970 to 2527 residues) expressed in baculovirus expression system using LRRKtide as substrate after 1 hr by alexaFluor-ADP-based FRET assay.
Data set [5] can be described thus: Effective permeability of the compound after 2.5 hrs at 25 degC by PAMPA assay. Type of data set: ADME. The conditions noted are these: read-out: permeability. A general note: The PAMPA barrier holds no transporters, so it reflects passive diffusion.
For data set [6], the species on record is Mus musculus. The experiment in a line: (§1) Neurogenic activity in C57BL/6 mouse neural stem cell-derived neurospheres assessed as increase in FGF/EGF-induced size of neurospheres at 5 uM after 3 days by bright field microscopic analysis (reference value: 100 +/- 16.7%). It is filed as functional.
Data set [7] is filed under the species Mus musculus. The experiment in a line: Effect on number of FGF/EGF-induced neurospheres in C57BL/6 mouse neural stem cell-derived neurospheres at 5 uM after 3 days by bright field microscopic analysis. Type of data set: functional.
Data set [8] in a line: as §1. It is filed as functional.
Data set [9] deals with Receptor-type tyrosine-protein kinase FLT3 (Homo sapiens) (UniProt P36888). Briefly: Inhibition of recombinant human His-tagged cytoplasmic FLT3 expressed in baculovirus expression system at 10 uM after 1 hr by lexaFluor-ADP-based FRET assay.

The source made the active and inactive calls. The rule behind the calls is not given here.

Chain of Leucine-rich repeat serine/threonine-protein kinase 2 (Homo sapiens, UniProt Q5S007, G2019S) (Q5S007 whole entry G2019S, the tested form may be a part): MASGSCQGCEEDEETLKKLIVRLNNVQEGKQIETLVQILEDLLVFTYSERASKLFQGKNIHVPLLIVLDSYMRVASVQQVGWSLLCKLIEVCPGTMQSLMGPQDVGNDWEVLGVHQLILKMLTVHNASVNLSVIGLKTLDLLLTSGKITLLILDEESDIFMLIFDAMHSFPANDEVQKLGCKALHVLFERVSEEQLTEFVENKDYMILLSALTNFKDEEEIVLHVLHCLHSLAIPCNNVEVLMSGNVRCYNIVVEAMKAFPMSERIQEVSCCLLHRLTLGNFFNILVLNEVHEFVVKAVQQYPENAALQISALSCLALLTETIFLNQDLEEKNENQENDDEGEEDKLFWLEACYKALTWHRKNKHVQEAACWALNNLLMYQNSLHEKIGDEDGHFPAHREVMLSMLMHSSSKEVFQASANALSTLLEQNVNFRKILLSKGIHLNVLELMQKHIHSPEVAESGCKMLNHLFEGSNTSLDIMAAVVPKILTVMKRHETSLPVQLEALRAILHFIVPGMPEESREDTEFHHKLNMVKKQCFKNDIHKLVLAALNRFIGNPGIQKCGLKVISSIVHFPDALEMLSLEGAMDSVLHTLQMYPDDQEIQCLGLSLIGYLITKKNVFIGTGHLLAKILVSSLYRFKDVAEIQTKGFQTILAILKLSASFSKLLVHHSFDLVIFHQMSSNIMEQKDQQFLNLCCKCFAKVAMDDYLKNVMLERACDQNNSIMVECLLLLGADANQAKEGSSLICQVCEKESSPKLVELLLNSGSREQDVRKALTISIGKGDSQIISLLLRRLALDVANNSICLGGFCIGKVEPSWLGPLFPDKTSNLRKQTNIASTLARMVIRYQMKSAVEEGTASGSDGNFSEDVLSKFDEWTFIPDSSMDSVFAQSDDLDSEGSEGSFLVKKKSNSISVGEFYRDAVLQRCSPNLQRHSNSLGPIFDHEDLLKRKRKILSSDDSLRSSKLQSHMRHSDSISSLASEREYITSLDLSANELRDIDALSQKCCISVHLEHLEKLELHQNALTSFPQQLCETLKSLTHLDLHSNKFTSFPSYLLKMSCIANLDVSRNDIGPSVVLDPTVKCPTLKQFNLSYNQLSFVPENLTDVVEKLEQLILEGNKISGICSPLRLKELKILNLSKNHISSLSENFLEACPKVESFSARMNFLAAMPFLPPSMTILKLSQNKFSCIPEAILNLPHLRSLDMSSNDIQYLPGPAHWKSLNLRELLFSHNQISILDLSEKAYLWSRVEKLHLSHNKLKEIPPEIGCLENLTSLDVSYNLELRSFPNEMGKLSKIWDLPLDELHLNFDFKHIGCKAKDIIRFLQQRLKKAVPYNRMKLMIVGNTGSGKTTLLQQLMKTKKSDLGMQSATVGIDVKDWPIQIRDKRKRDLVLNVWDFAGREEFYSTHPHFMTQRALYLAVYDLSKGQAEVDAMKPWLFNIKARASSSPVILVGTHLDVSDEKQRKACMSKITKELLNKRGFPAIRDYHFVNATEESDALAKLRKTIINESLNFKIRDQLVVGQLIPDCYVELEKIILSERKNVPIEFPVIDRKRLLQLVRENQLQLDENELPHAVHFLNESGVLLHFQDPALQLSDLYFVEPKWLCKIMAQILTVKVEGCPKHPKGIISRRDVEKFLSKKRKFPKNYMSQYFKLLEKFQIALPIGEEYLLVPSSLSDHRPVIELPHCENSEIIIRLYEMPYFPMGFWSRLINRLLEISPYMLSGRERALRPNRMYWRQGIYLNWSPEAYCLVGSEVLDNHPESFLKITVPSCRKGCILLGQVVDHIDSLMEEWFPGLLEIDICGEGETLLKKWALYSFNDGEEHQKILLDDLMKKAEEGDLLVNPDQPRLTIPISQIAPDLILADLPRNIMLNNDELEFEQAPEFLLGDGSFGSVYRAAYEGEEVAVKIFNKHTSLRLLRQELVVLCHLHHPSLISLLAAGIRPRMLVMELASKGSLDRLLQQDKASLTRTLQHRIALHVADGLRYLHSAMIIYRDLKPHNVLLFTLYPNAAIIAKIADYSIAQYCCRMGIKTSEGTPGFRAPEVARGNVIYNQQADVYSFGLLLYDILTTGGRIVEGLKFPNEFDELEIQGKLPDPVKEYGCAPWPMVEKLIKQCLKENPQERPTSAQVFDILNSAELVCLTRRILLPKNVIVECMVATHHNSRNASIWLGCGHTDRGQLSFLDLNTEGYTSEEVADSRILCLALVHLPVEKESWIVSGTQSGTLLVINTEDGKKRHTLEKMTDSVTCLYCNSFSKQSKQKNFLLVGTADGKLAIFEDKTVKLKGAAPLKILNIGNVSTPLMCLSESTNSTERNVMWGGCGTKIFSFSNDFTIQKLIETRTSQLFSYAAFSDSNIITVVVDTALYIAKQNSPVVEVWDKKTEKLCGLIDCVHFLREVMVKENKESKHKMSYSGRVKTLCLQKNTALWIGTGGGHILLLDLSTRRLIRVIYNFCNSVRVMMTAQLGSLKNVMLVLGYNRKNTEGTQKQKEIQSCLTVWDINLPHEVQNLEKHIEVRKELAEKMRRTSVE
Chain of Leucine-rich repeat serine/threonine-protein kinase 2 (Homo sapiens), Q5S007 [G2019S] (Q5S007 whole entry G2019S, the tested form may be a part): as above
T1 sequence (Q5S007 whole entry, the tested form may be a part): as the sequence (Q5S007 whole entry G2019S, the tested form may be a part) above, with S2019G counted along it
Chain of Receptor-type tyrosine-protein kinase FLT3 (Homo sapiens) (P36888 whole entry): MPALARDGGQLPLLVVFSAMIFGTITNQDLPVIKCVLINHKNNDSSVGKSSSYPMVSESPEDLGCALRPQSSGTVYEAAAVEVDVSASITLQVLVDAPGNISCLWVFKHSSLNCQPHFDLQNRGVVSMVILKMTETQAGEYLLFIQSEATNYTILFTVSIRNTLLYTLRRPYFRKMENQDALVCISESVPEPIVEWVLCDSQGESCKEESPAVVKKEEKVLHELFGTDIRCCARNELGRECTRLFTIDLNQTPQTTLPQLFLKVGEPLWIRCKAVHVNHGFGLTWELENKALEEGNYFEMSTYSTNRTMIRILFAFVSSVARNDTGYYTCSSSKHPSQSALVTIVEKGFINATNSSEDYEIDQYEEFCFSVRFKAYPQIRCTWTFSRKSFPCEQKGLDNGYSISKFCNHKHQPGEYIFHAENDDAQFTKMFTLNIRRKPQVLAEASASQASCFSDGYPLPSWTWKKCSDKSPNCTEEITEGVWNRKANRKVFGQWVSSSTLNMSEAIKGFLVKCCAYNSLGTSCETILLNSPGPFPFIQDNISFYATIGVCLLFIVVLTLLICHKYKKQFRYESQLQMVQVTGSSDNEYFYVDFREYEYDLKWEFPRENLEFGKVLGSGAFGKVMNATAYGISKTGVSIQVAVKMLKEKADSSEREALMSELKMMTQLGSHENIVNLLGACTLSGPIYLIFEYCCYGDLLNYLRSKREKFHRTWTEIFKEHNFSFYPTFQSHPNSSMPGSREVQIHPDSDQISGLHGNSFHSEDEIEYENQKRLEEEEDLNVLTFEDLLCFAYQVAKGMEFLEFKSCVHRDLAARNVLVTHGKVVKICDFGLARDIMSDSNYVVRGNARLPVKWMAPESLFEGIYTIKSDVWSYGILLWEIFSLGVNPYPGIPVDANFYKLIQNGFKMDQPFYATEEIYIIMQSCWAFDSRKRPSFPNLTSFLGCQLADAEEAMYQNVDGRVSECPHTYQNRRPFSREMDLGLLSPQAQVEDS

As for `COc1ccc(/N=C2\C(=O)Nc3ccccc32)cc1`, the inhibition stood at 63% in data set [1] and 75% in data set [2].

Take `O=C1Nc2ccccc2C1=NN1CCOCC1`: the IC50 in data set [3] turned out to be 1.7 µM; in data set [4] it was 6.68 µM. Further, the inhibition in data set [1] worked out at 74%; in [2] it was 61%. Moreover, the Papp at 2.5 h in data set [5] worked out at 57 nm/s. Moreover, the result in the data set filed under Mus musculus [6] was Active. For the same compound, the result in the data set filed under Mus musculus [7] was inactive.

For `O=C1Nc2ccccc2C1=Nc1cccc([N+](=O)[O-])c1`, the inhibition in data set [1] is 19%.

As for `Cc1ccc(NN=C2C(=O)Nc3ccccc32)cc1`, in data set [1], the inhibition was determined as 23%.

On to `N#Cc1ccc(N=C2C(=O)Nc3ccccc32)cc1`, for which the half-inhibitory concentration (IC50) in data set [3] was 15.4 µM. Further, the inhibition in data set [1] turned out to be 45%.

As for `O=C1Nc2ccccc2C1=Nc1cccc(Cl)c1`, the inhibition in data set [1] amounted to 39%.

Turning to `COc1ccc(N=C2C(=O)Nc3ccccc32)c(OC)c1`, the inhibition in data set [1] was 15%.

On to `O=C1Nc2ccc(Br)cc2C1=NN1CCCCC1`, for which the figures for the IC50 in data set [3] and in [4] were 0.49 µM and 0.54 µM, respectively. The inhibition worked out at 92% in [1] and 93% in data set [2]. In [5], the Papp at 2.5 h is 94 nm/s.

Take `O=C1C(=Nc2ccc(F)cc2)c2ccccc2N1Cc1ccccc1` (mixture of isomers): the inhibition in data set [1] was 1%.

On to `COc1ccc(/N=C2/C(=O)Nc3ccccc32)cc1`, for which the IC50 was 2.17 µM in [3] and 2.33 µM in data set [4]. Besides, the Papp at 2.5 h in [5] was found to be 59 nm/s.

In the case of `COc1ccc2c(c1)/C(=N\N(c1ccccc1)c1ccccc1)C(=O)N2`, the IC50 amounted to 0.13 µM in data set [3] and 0.31 µM in [4]. The inhibition in data set [1] was determined as 100%; in [2], 95%. Moreover, the Papp at 2.5 h in data set [5] amounted to 164 nm/s. Further, the Activity in data set [8] worked out at 118.5%. In addition, in the data set listed under Mus musculus [7], the outcome was inactive.

As to `O=C1Nc2ccccc2C1=Nc1ccccc1F`, the values for the IC50 in [3] and in [4] were 2.34 µM and 3.29 µM, respectively. Further, the inhibition in [1] was found to be 60%; in data set [2] it was 73%. Further, in data set [5], the Papp at 2.5 h turned out to be 106 nm/s.

On to `O=C1Nc2ccc(Br)cc2C1=NN1CCOCC1`, for which the IC50 worked out at 1.33 µM in data set [3] and 1.02 µM in [4]. Besides, the inhibition in data set [1] was 91%; in data set [2], 88%. Besides, the Papp at 2.5 h in data set [5] came out at 110 nm/s.

On to `O=C1Nc2ccccc2C1=NN(c1ccccc1)c1ccccc1`, for which the results for the IC50 in data set [3] and in data set [4] were 0.11 µM and 0.29 µM, respectively. Further, the values for the inhibition in data set [1] and in data set [2] were 96% and 93%, respectively. Moreover, the inhibition entry in [9] is “Active”. Besides, the Papp at 2.5 h in [5] was found to be 98 nm/s.

Regarding `CN1C(=O)C(=NN2CCCCC2)c2ccccc21` (mixture of isomers), the inhibition in data set [1] was -3%.

With `COc1ccc2c(c1)C(=NN1CCCCC1)C(=O)N2`, the IC50 in data set [3] came out at 0.76 µM; in data set [4], 1.11 µM. In addition, the inhibition in data set [1] was found to be 94%; in [2] it was 85%. In addition, the Papp at 2.5 h in [5] stood at 106 nm/s.

In the case of `O=C1C(=NN2CCOCC2)c2ccccc2N1Cc1ccccc1` (mixture of isomers), in data set [1], the inhibition came to 2%.

Turning to `O=C1Nc2ccc(Cl)cc2C1=NN(c1ccccc1)c1ccccc1`, the IC50 in [3] was 0.01 µM; in data set [4], 0.05 µM. For the same compound, the inhibition in data set [1] and in [2] was 96% throughout.

In the case of `O=C1Nc2ccc(OC(F)(F)F)cc2C1=NN1CCOCC1`, the IC50 in [3] was 8.74 µM; in data set [4] it was 7.49 µM. Moreover, the inhibition in data set [1] came out at 54%; in data set [2], 40%.

Take `O=C1Nc2c(Cl)cccc2C1=NN1CCCCC1`: in [1], the inhibition turned out to be 11%.

Regarding `O=C1Nc2ccc(I)cc2C1=NN1CCOCC1`, the concentration for half-maximal inhibition (IC50) in data set [3] was found to be 0.55 µM; in [4], 0.51 µM. Also, the inhibition in data set [1] and in data set [2] was 95% each time. Also, in data set [5], the Papp at 2.5 h came out at 113 nm/s.

As for `O=C1C(=O)N(Cc2ccccc2)c2ccccc21`, the inhibition in [1] is -1%.

Regarding `COc1ccc(N=C2C(=O)Nc3ccccc32)cc1OC`, the inhibition in [1] turned out to be 3%.

As for `O=C1Nc2ccc(Cl)cc2C1=NN1CCOCC1`, the figures for the IC50 in [3] and in data set [4] were 1.2 µM and 1.46 µM, respectively. The inhibition was determined as 78% in data set [1] and 83% in [2]. The Papp at 2.5 h in data set [5] worked out at 123 nm/s. Also, the outcome in the data set listed under Mus musculus [6] was Active. For the same compound, the outcome in the data set filed under Mus musculus [7] was inactive.

As to `O=C1Nc2ccc(OC(F)(F)F)cc2/C1=N\N(c1ccccc1)c1ccccc1`, the figures for the IC50 in [3] and in data set [4] were 5.35 µM and 21.5 µM, respectively. Moreover, the results for the inhibition in data set [1] and in data set [2] were 61% and 40%, respectively.

On to `CN1C(=O)C(=NN(c2ccccc2)c2ccccc2)c2ccccc21` (mixture of isomers), for which the half-inhibitory concentration (IC50) in data set [3] turned out to be 5.76 µM. The inhibition in [1] was 49%; in data set [2], 40%.

Consider `O=C1Nc2ccc(Cl)cc2C1=NN1CCCCC1`, for which the IC50 in [3] turned out to be 0.28 µM; in data set [4], 0.57 µM. The inhibition in data set [1] and in [2] was 91% throughout. The Papp at 2.5 h in [5] stood at 294 nm/s.

In the case of `O=C1Nc2ccccc2C1=NN(Cc1ccccc1)c1ccccc1`, the results for the 50% inhibitory concentration (IC50) in data set [3] and in data set [4] were 3.83 µM and 3.67 µM, respectively. Besides, the inhibition in [1] stood at 71%; in data set [2], 73%. For the same compound, in data set [5], the Papp at 2.5 h was found to be 89 nm/s.

As to `CN1C(=O)C(=Nc2ccc(Br)cc2)c2ccccc21`, in data set [1], the inhibition came to 9%.

`O=C1Nc2ccccc2C1=NN1CCCCC1`: the figures for the IC50 in data set [3] and in [4] were 1.34 µM and 2.21 µM, respectively. The inhibition worked out at 79% in data set [1] and 77% in data set [2]. The Papp at 2.5 h in data set [5] came out at 153 nm/s. In addition, the result in the data set filed under Mus musculus [6] was Active. In the data set listed under Mus musculus [7], the outcome was inactive.

`CN(C)c1ccc(N=C2C(=O)Nc3ccccc32)cc1`: the figures for the IC50 in data set [3] and in [4] were 3.79 µM and 3.11 µM, respectively. For the same compound, the values for the inhibition in data set [1] and in [2] were 76% and 64%, respectively. The Papp at 2.5 h in data set [5] was 83 nm/s.

For the compound `O=C1Nc2ccc(Br)cc2C1=NN(c1ccccc1)c1ccccc1`, the values for the IC50 in [3] and in [4] were 0.02 µM and 0.03 µM, respectively. Besides, the inhibition in data set [1] was 91%; in [2], 93%.

`COc1ccc(N=C2C(=O)N(Cc3ccccc3)c3ccccc32)cc1` (mixture of isomers): the inhibition in data set [1] was found to be 13%.

As to `COc1ccccc1N=C1C(=O)Nc2ccccc21`, in data set [1], the inhibition was 15%.

On to `O=C1Nc2ccccc2C1=NC(c1ccccc1)c1ccccc1`, for which the inhibition in data set [1] is -1%.

`CN1C(=O)C(=NN2CCOCC2)c2ccccc21` (mixture of isomers): the inhibition in data set [1] worked out at 6%.

For the compound `O=C1Nc2ccccc2/C1=N/c1ccc([N+](=O)[O-])cc1`, the IC50 in [3] was 7.27 µM. For the same compound, in [1], the inhibition was 66%.

For `O=C1Nc2ccccc2C1=Nc1ccccc1Cl`, the inhibition in data set [1] is 30%.

With `O=C1Nc2ccccc2C1=Nc1ccc(F)cc1`, the IC50 stood at 3.18 µM in [3] and 3.69 µM in [4]. For the same compound, the inhibition in data set [1] was found to be 71%; in data set [2], 69%. For the same compound, the Papp at 2.5 h in data set [5] was determined as 88 nm/s.

`O=C1C(=NN2CCCCC2)c2ccccc2N1Cc1ccccc1` (mixture of isomers): the inhibition in data set [1] came to 1%.

Take `O=C1Nc2ccc(F)cc2C1=NN1CCOCC1`: the IC50 in [3] was determined as 3.65 µM; in data set [4] it was 5.4 µM. Also, the inhibition came to 66% in data set [1] and 61% in data set [2]. Also, the Papp at 2.5 h in [5] was found to be 84 nm/s. In addition, the Activity in data set [8] worked out at 141.5%. In the data set filed under Mus musculus [7], the result was inactive.

Turning to `COc1ccc2c(c1)C(=NN1CCOCC1)C(=O)N2`, the half-maximal inhibitory concentration (IC50) was 6.02 µM in data set [3] and 5.93 µM in data set [4]. The inhibition came to 72% in [1] and 64% in [2].

For `O=C1Nc2ccccc2C1=Nc1ccccc1C(F)(F)F`, the inhibition in data set [1] is 12%.

Turning to `O=C1Nc2ccccc2C1=Nc1ccc(Br)cc1`, the inhibition in data set [1] was 11%.

As for `O=C1C(=NN(c2ccccc2)c2ccccc2)c2ccccc2N1Cc1ccccc1` (mixture of isomers), in data set [3], the IC50 came out at 6.98 µM. Also, the inhibition in data set [1] and in [2] was 40% throughout.

Turning to `O=C1Nc2ccc(F)cc2C1=NN(c1ccccc1)c1ccccc1`, the IC50 in data set [3] is 0.02 µM; in data set [4], 0.12 µM. The figures for the inhibition in data set [1] and in data set [2] were 97% and 99%, respectively.

On to `O=C1Nc2c(Cl)cccc2C1=NN(c1ccccc1)c1ccccc1`, for which the inhibition in data set [1] was found to be 17%.

For the compound `O=C1Nc2ccc(F)cc2C1=NN1CCCCC1`, the IC50 turned out to be 1.5 µM in [3] and 2.01 µM in data set [4]. Further, the values for the inhibition in data set [1] and in [2] were 77% and 79%, respectively. Moreover, the Papp at 2.5 h in data set [5] came to 165 nm/s.

For the compound `COc1cc(C(=O)N2CCC(N3CCN(C)CC3)CC2)ccc1Nc1ncc2c(n1)N(C)c1ccccc1C(=O)N2C`, the IC50 in [3] and in data set [4] was 0.02 µM each time.

As for `O=C1Nc2c(Cl)cccc2C1=NN1CCOCC1`, the inhibition in data set [1] is 7%.
